{"source": "patent US7655677B2", "about": "“Composition and method for controlling house insect pest” (priority 2002, dated 2010)", "format_in_all_cases": "in vivo", "key": {"[1]": {"tested_on": "Coptotermes formosanus", "test": "Test Example 5: treated filter paper in acrylic cup, termite mortality after 7 days", "conditions": "168 h", "protocol": "(§1) A filter paper having a diameter of 80 mm was placed in a cylindrical cup made of acrylic resin having a diameter of 80 mm and a height of 60 mm (i.e. a cup having a hole with a diameter of 10 mm formed in the bottom and having hard plaster (Dental Stone) set at the bottom in a thickness of 10 mm), and 1 ml of a solution containing a sample compound in a predetermined concentration, was dropped thereon. Then, nine termite workers and one termite soldier (Coptotermes formosanus) were released thereon. The cup was placed in a container having wet cotton laid over the bottom, and the container was maintained at room temperature of 25° C. for 7 days, whereupon the mortality of termites in the cup was examined."}, "[2]": {"tested_on": "Priplaneta americana", "test": "Test Example 12: mouse feed poison bait, mortality with time", "conditions": "bait 1%", "protocol": "1 g of feeding stuff for mice was treated with 0.5 ml of an acetone solution containing 10 mg of a sample compound and put in a constant temperature chamber at 40° C. for 20 hours to sufficiently evaporate acetone, whereby a poison bait chemical containing 1% of the sample compound was prepared. Then, this poison bait chemical was put into a cup together with a wet cotton, and 10 […] (Priplaneta americana) were released and kept at 25° C. in a breeding room, whereby the mortality was examined as the time passed."}, "[3]": {"tested_on": "Reticulitermes speratus", "test": "Test Example 6: treated filter paper in acrylic cup, termite mortality after 7 days", "conditions": "168 h", "protocol": "as §1, with “ten” for “nine”, “(Reticulitermes speratus)” for “(Coptotermes formosanus)”"}, "[4]": {"tested_on": "Coptotermes formosanus", "test": "Test Example 24: treated filter paper in Petri dish, termite mortality on 21st or 28th day", "protocol": "(§2) Mortality (%)=(Number of dead termite workers/15 termite workers)×100\n(§3) Further, by the Colby's formula, the theoretical value (%) of mortality can be calculated. In a case where the actual mortality (%) is higher than the theoretical value (%), it can be said that the composition of the present invention has a synergistic effect for controlling the house insect pest.\nA filter paper having a diameter of 80 mm was placed in a plastic Petri dish, and 1 ml of a pesticide solution having a predetermined concentration was dropped thereon, whereupon 10 termite workers (Coptotermes formosanus) were released, and a cover was put on the Petri dish. This plastic Petri dish was put in a container having wet cotton laid over the bottom and maintained at room temperature of 25° C. On 21 or 28th day after the treatment, the number of dead termites in the Petri dish was examined, and the mortality was calculated in the same manner as Test Example 1."}, "[5]": {"tested_on": "Reticulitermes speratus", "test": "Test Example 9: treated filter paper in acrylic cup, termite mortality 5 and 20 days later", "conditions": "1000 ppm", "protocol": "as §1, with “ten” for “nine”, “(Reticulitermes speratus)” for “(Coptotermes formosanus)”, “C., and 5 days later and 20 days later,” for “C. for 7 days, whereupon”"}, "[6]": {"tested_on": "Lasius japonicus", "test": "Test Example 11: powdered skim milk poison bait, controlling effect on ants 4 days later", "conditions": "bait concentration 1%", "protocol": "1 g of powdered skim milk was treated with 1 ml of an acetone solution containing 10 mg of a sample compound and put in a constant temperature chamber at 40° C. for 20 hours to sufficiently evaporate acetone. In this manner, a poison bait chemical containing 1% of an active ingredient compound, was prepared. Then, this poison bait chemical was put into a cup together with a wet cotton, and 15 ants (Lasius japonicus) were released. 4 Days later, the mortality was examined. Here, when the mortality 4 days later was at least 40%, the controlling effect was rated to be positive."}, "[7]": {"tested_on": "Reticulitermes speratus", "test": "Test Example 2: treated filter paper in Petri dish, termite mortality after 17 days", "conditions": "408 h", "protocol": "as §2, §3\n(§4) A filter paper having a diameter of 80 mm was placed in a plastic Petri dish, and 1 ml of a pesticide solution having a predetermined concentration, was dropped thereon. After the treatment, the solvent was sufficiently evaporated and then, 1 ml of distilled water was impregnated to the treated filter paper, whereupon 15 termite workers and one termite soldier (Reticulitermes speratus) were released. The plastic Petri dish was placed in a container having wet cotton laid over the bottom, and the container was maintained at 25° C. for 17 days. Then, the number of dead termites in the Petri dish was examined, and the mortality was calculated in the same manner as in Test Example 1."}, "[8]": {"tested_on": "Reticulitermes speratus", "test": "Test Example 1: treated filter paper in Petri dish, termite mortality after 13 days", "conditions": "312 h", "protocol": "as §4, with “predetermined concentration” for “predetermined concentration,”, “sufficiently evaporated,” for “sufficiently evaporated”, “for 13 days, whereupon” for “for 17 days. Then,”, “calculated by” for “calculated in”, “the following formula.” for “the same manner as in Test Example 1.”\nas §2, §3"}, "[9]": {"tested_on": "Reticulitermes speratus", "test": "Test Example 3: treated filter paper in Petri dish, termite mortality after 37 days", "conditions": "Reticulitermes speratus, 888 h", "protocol": "as §2, §3\nas §4, with “evaporated,” for “evaporated”, “10” for “15”, “workers” for “workers and one termite soldier”, “37 days, whereupon” for “17 days. Then,”"}}}
{"molecule": "CCOP(=S)(OCC)Oc1nc(Cl)c(Cl)cc1Cl", "note": "[Chlorpyrifos, reference compound]", "values": [{"measurement": "mortality at 500 ppm", "setting": "[1]", "value": 100, "unit": "%"}, {"measurement": "mortality at 1000 ppm", "setting": "[1]", "value": 100, "unit": "%"}, {"measurement": "Mortality", "setting": "[2]; 1 Day later", "value": 100, "unit": "%"}, {"measurement": "Mortality", "setting": "[2]; 8 Days later", "value": 100, "unit": "%"}, {"measurement": "Mortality", "setting": "[2]; 48 Days later", "value": 100, "unit": "%"}, {"measurement": "mortality at 1000 ppm", "setting": "[3]", "value": 100, "unit": "%"}]}
{"molecule": "Cc1c(COC(=O)[C@@H]2[C@H](/C=C(\\Cl)C(F)(F)F)C2(C)C)cccc1-c1ccccc1", "note": "(racemic) [Bifenthrin]", "values": [{"measurement": "Mortality", "setting": "[4]; Bifenthrin 0.25 ppm alone, 28th day", "value": 0, "unit": "%"}, {"measurement": "mortality at 0.25 ppm", "setting": "[4]; Coptotermes formosanus", "value": 0, "unit": "%"}, {"measurement": "mortality at 0.5 ppm", "setting": "[4]; Coptotermes formosanus", "value": 10, "unit": "%"}, {"measurement": "mortality at 1 ppm", "setting": "[4]; Coptotermes formosanus", "value": 40, "unit": "%"}]}
{"molecule": "CC(=NN=C(Cc1ccc(C(C)(C)C)cc1)c1ccc(C)cc1)N(C)C", "note": "[Compound No. II-6, [4′-methyl-2-(4-tert-butylphenyl)acetophenone]N′-[1-(dimethylamino)ethylidene]hydrazone]", "values": [{"measurement": "Mortality", "setting": "[5]; 5 Days later", "value": 70, "unit": "%"}, {"measurement": "Mortality", "setting": "[5]; 20 Days later", "value": 100, "unit": "%"}, {"measurement": "Controlling effect", "setting": "[6]", "value": "Positive (when the mortality 4 days later was at least 40%, the controlling effect was rated to be positive)"}]}
{"molecule": "O=C(NC(=O)c1c(F)cccc1F)Nc1cc(Cl)c(OC(F)(F)C(F)F)c(Cl)c1", "note": "[Hexaflumuron]", "values": [{"measurement": "mortality at 1000 ppm", "setting": "[7]", "value": 40, "unit": "%"}, {"measurement": "mortality at 2000 ppm", "setting": "[7]", "value": 40, "unit": "%"}, {"measurement": "mortality at 4000 ppm", "setting": "[7]", "value": 20, "unit": "%"}, {"measurement": "mortality at 8000 ppm", "setting": "[7]", "value": 33, "unit": "%"}]}
{"molecule": "O=C(NC(=O)c1c(F)cccc1F)Nc1cc(Cl)c(Oc2ncc(C(F)(F)F)cc2Cl)c(Cl)c1", "note": "[Chlorfluazuron]", "values": [{"measurement": "mortality at 1000 ppm", "setting": "[8]", "value": 0, "unit": "%"}, {"measurement": "mortality at 2000 ppm", "setting": "[8]", "value": 33, "unit": "%"}, {"measurement": "mortality at 4000 ppm", "setting": "[8]", "value": 53, "unit": "%"}, {"measurement": "mortality at 8000 ppm", "setting": "[8]", "value": 60, "unit": "%"}, {"measurement": "mortality at 500 ppm", "setting": "[9]; Chlorfluazuron 500 ppm alone", "value": 30, "unit": "%"}, {"measurement": "mortality at 1000 ppm", "setting": "[9]; Chlorfluazuron 1000 ppm alone", "value": 50, "unit": "%"}, {"measurement": "mortality at 2000 ppm", "setting": "[9]; Chlorfluazuron 2000 ppm alone", "value": 50, "unit": "%"}, {"measurement": "mortality at 4000 ppm", "setting": "[9]; Chlorfluazuron 4000 ppm alone", "value": 50, "unit": "%"}, {"measurement": "mortality at 500 ppm", "setting": "[4]; Coptotermes formosanus", "value": 20, "unit": "%"}, {"measurement": "mortality at 1000 ppm", "setting": "[4]; Coptotermes formosanus", "value": 30, "unit": "%"}, {"measurement": "mortality at 2000 ppm", "setting": "[4]; Coptotermes formosanus", "value": 30, "unit": "%"}]}
{"molecule": "CC(=NN=C(Cc1ccc(C(F)(F)F)cc1)c1ccc(Cl)cc1)N(C)C", "note": "[Compound No. II-1, [4′-chloro-2-(4-trifluoromethylphenyl)acetophenone]N′-[1-(dimethylamino)ethylidene]hydrazone]", "values": [{"measurement": "Mortality", "setting": "[5]; 5 Days later", "value": 0, "unit": "%"}, {"measurement": "Mortality", "setting": "[5]; 20 Days later", "value": 100, "unit": "%"}]}
{"molecule": "CC(N)=NN=C(Cc1ccc(C(F)(F)F)cc1)c1ccc(Cl)cc1", "note": "[Compound No. II-7, [4′-chloro-2-(4-trifluoromethylphenyl)acetophenone]N′-[1-aminoethylidene]hydrazone]", "values": [{"measurement": "Mortality", "setting": "[5]; 5 Days later", "value": 100, "unit": "%"}, {"measurement": "Mortality", "setting": "[5]; 20 Days later", "value": 100, "unit": "%"}]}
{"molecule": "CCOC(=O)NN=C(Cc1ccc(C(F)(F)F)cc1)c1ccc(Cl)cc1", "note": "[Compound No. II-3]", "values": [{"measurement": "Mortality", "setting": "[2]; 1 Day later", "value": 0, "unit": "%"}, {"measurement": "Mortality", "setting": "[2]; 8 Days later", "value": 100, "unit": "%"}, {"measurement": "Mortality", "setting": "[2]; 48 Days later", "value": 100, "unit": "%"}, {"measurement": "Mortality", "setting": "[5]; 5 Days later", "value": 0, "unit": "%"}, {"measurement": "Mortality", "setting": "[5]; 20 Days later", "value": 100, "unit": "%"}]}
